# Experimental data as given in patent publication US5478807A, “Use of relaxin in the treatment of bradycardia” (Genentech, Inc., priority 1992, dated 1995).
# Several values for one entry are separate records, joined by “and”; a condition that tells them apart may be missing. Equal entries are not always repeated.
# Assays:
# [1] = Continuous subcutaneous infusion in female SHR and SD rats, uterine weight; assay type: in vivo, rat; conditions: continuous s.c. infusion 1 or 10 ng/min
# Method: Groups (4 to 9 animals in each group) of conscious, non-pregnant, Spontaneously Hypertensive (SHR) and Sprague-Dawley (SD) female rats weighing about 144-385 g each, were used in this experiment. The rats were anesthetized with ketamine hydrochloride (150 mg/kg) in order to cannulate the left iliac artery and to implant an osmotic pump. All surgery was performed under aseptic conditions. Stretched PE 50 tubing was fitted with an injection cap and flushed with heparinized saline, routed subcutaneously, exteriorized between the capsulae, and passed through a spring tether that is anchored to the skin with a nylon button. Extreme care was taken in cannulating the left iliac artery to avoid damage to collateral circulation and local innervation. An (Alzet) osmotic pump filled with relaxin or vehicle was then inserted into a subcutaneous pocket caudal to the exit point of the cannula.
# All wounds were closed with suture, infiltrated with Xylocaine and coated with Betadine. […] Arterial pressure, heart rate, water intake, urine volume and vascular blood volume were measured daily throughout the duration of the experiments.
# Arterial pressure and heart rate were measured directly through the arterial cannulae with standard pressure transducers (Stoelting) and strain gauge amplifiers (Stoelting). […]
# [2] = test system: right atrium; experiment: Right atrial rate, isolated spontaneously beating right atrium; parameters: species or system rat; conditions: for right atrial heart rate % Δ, mean (X): mean of experiments; for right atrial heart rate / right atrial heart rate % Δ: single experiment
# Method: (§1) Krebs-Henseleit solution was prepared with the following composition (in millimoles): NaCl 118; KCl 4.7; MgSO4 1.64; NaHCO3 24.88; KH2 PO4 1.18; d-glucose 11.1; bubbled with 95% O2 /5% CO2; CaCl2 2.52.
# (§2) Human (H2) relaxin (hRLx-2, 1.5 mg/ml; Genentech) was diluted fresh daily to desired concentrations (500:1; 5000:1; 50000:1) in Krebs-Henseleit solution.
# (§3) Male Wistar rats (Charles River) weighing 475-525 g each, were anesthetized with sodium pentobarbital (60 mg/kg). After thoracotomy, the heart was removed rapidly and placed in cold (4° C.) Krebs-Henseleit solution until spontaneous contractions ceased. The right and left atria were excised.
# (§4) Tissue was bathed in an organ chamber holding 42 ml Krebs-Henseleit solution that was aerated with 95% O2 /5% CO2 and heated to 37° C. with a temperature controlled water jacket. Tissue contractions were measured with force-displacement transducers (Grass FT 0.3) and recorded on chart paper (Grass moled 79 polygraph). The rates of contractions were determined with a cardiotachometer (Grass). Electrical stimulation of tissue was induced through bipolar clip electrodes connected to a stimulator through a stimulus isolation unit (Grass model S48).
# Stainless steel clips weighing 0.5 g each were attached to each end of the right atrium. One clip was secured to a hook within the organ chamber and the other clip was attached to the force-displacement transducer. The position of the transducer was adjusted to yield 0.5 g resting tension.
# (§5) In all experiments the atria were allowed to stabilize for 30 minutes prior to addition of drugs. […] Thus, cumulative dose-response curves were generated. At 10 minute intervals, relaxin was added to each organ chamber to obtain bath concentrations of 100 pg/ml, 300 pg/ml, 1 ng/ml, 3 ng/ml, 10 ng/ml and 30 ng/ml.
# (§6) Measurement of contraction rate and force of contraction following each dose of relaxin were obtained after responses reached a steady state. Rate was determined directly from the output of the cardiotachometer. Force of contraction was measured as the magnitude of the contractile twitches. In order to adjust for variations between tissues, data are expressed as percent changes from pre-drug values, as means±standard errors. Measurements of rate were obtained in seven right atria; measurement of contractile force were obtained in four left atria.
# [3] = test system: left atrium; experiment: Left atrial contraction, isolated electrically paced left atrium; parameters: species or system rat; conditions: for left atrium contractile force % Δ, mean (X): mean of four left atria; for left atrium contractile force % Δ: single experiment
# Method: as §1, §2, §3, §4
# A stainless steel clip was attached to the distal end of the left atrium and the proximal end was attached to a bipolar electrode. The electrode assembly was secured within the organ chamber and the upper clip was attached to the force-displacement transducer. The position of the transducer was adjusted to yield 1.0 g resting tension. The left atrium was stimulated at 3Hz at 1.5×threshold. The duration (3 msec) and intensity of the pulses (1.5-3.0 Volts) were kept constant throughout an experiment.
# as §5, §6
# [4] = 100 pg, change from pre-drug value
substance,measurement,setting,value
relaxin,uterine weight,[1],increased uterine weights
same,"right atrial heart rate % Δ, mean (X)",[2]; 100 pg (printed under 30 pg),0.17%
same,right atrial heart rate,[2]; 100 pg,290 beats/min and 270 beats/min and 300 beats/min and 320 beats/min
same,right atrial heart rate % Δ,[2]; [4],0% and 1%
same,"right atrial heart rate % Δ, mean (X)",[2]; 300 pg (printed under 100 pg),3.83%
same,right atrial heart rate,[2]; 300 pg,300 beats/min and 295 beats/min and 310 beats/min and 330 beats/min
same,right atrial heart rate % Δ,[2]; 300 pg,3% and 9% and 5% and 0%
same,"right atrial heart rate % Δ, mean (X)",[2]; 1 ng (printed under 300 pg),11.67%
same,right atrial heart rate,[2]; 1 ng,320 beats/min and 310 beats/min and 350 beats/min and 345 beats/min
same,"right atrial heart rate % Δ, mean (X)",[2]; 3 ng (printed under 1 ng),23.33%
same,right atrial heart rate,[2]; 3 ng,345 beats/min and 350 beats/min and 400 beats/min and 360 beats/min and 365 beats/min
same,"right atrial heart rate % Δ, mean (X)",[2]; 10 ng (printed under 3 ng),32.0%
same,right atrial heart rate,[2]; 10 ng,345 beats/min and 390 beats/min and 445 beats/min and 370 beats/min and 385 beats/min and 380 beats/min
same,"right atrial heart rate % Δ, mean (X)",[2]; 30 ng (printed under 10 ng),36.2%
same,average increase in contraction rate,[2]; 30 ng/minute dose,36%
same,right atrial heart rate,[2]; 30 ng,400 beats/min and 450 beats/min and 385 beats/min and 395 beats/min and 405 beats/min
same,point of half maximal increase in contraction rate,[2]; right atrium,about 1.8 ng/ml
same,"left atrium contractile force % Δ, mean (X)",[3]; 100 pg,-6%
same,left atrium contractile force % Δ,[3]; [4],-12% and -5% and -4% and -3%
same,"left atrium contractile force % Δ, mean (X)",[3]; 300 pg,-9.5%
same,"left atrium contractile force % Δ, mean (X)",[3]; 1 ng,1.0%
same,"left atrium contractile force % Δ, mean (X)",[3]; 3 ng,14.3%
same,"left atrium contractile force % Δ, mean (X)",[3]; 10 ng,30%
same,left atrium contractile force % Δ,[3]; 10 ng,22% and 38% and 40% and 20%
same,"left atrium contractile force % Δ, mean (X)",[3]; 30 ng,37.8%
same,peak decrease in contractile force,[3]; at 300 pg/ml,10%
same,peak increase in contractile force,[3]; at 30 ng/ml,38%
same,point of half maximal increase in contractile force,[3]; left atrium,about 4.8 ng/ml
